Reference: patent publication US8911713B2, “Method for preventing or treating skin tumor” (Galderma Research & Development, priority 2010, dated 2014)
Like-named read-outs stand apart in the source and are kept apart here.

Test system: UV-induced skin tumor
Conditions: for Tumor Yield (≧1 mm): average number of tumors per survivor; for Median Week to Tumor (≧1 mm): 100 μL/mouse, 5 days/wk, + 600 RBU/week UVR, 40 weeks + 12 weeks observation
Method: Albino hairless SKH1-hr mice (36/sex/group) were treated for 40 weeks with UVR and brimonidine gel or vehicle according to the design in table 11. […] Topical treatments were performed approximately one hour before UVR on Monday, Wednesday and Friday of each week and approximately one hour after UVR Tuesday and Thursday of each week.

Brc1c(NC2=NCCN2)ccc2nccnc12 [Brimonidine, (5-Bromo-quinoxalin-6-yl)-(4,5-dihydro-1H-imidazol-2-yl)-amine]
Reduction of tumor yield (≧1 mm) compared to the vehicle group (0.18% topical + 600 RBU/week UVR): 1.7 fold
Members of the group that acquired one or more qualifying tumors (≧1 mm) within the 52-week study period (1% topical + 600 RBU/week UVR): less than one-half
Reduction of tumor yield (≧1 mm) compared to the vehicle group (1% topical + 600 RBU/week UVR): 4.7 fold
Members of the group that acquired one or more qualifying tumors (≧1 mm) within the 52-week study period (2% topical + 600 RBU/week UVR): less than one-half
Reduction of tumor yield (≧1 mm) compared to the vehicle group (2% topical + 600 RBU/week UVR): 8.1 fold
Tumor Yield (≧1 mm) (Group 2: 0.18% topical + 600 RBU/week UVR): 2.40 tumors per survivor
Median Week to Tumor (≧1 mm) (Group 2: 0.18% topical): 48 Week
Tumor Yield (≧1 mm) (Group 3: 1% topical + 600 RBU/week UVR): 0.85 tumors per survivor
Median Week to Tumor (≧1 mm) (Group 3: 1% topical): >52 Week
Tumor Yield (≧1 mm) (Group 4: 2% topical + 600 RBU/week UVR): 0.49 tumors per survivor
Median Week to Tumor (≧1 mm) (Group 4: 2% topical): >52 Week
UV-induced skin tumor formation (topical 0.18%, 1% and 2% + 600 RBU/week UVR): dose-dependent delay
Sizes of tumors (tumor prevalence by size, FIG. 1) (with increasing concentration, topical, sexes combined): the sizes of tumors were also reduced
